pIC50: −log10 of the molar value.
Tests used:
Format in all cases: cell-based
[1] = target: T1, PLK1 (Homo sapiens, UniProt P53350); experiment: Luciferase assay for PLK1 in HeLa LgBit (Plk1-HiBit KI) cell line; conditions: 300 nM compound, luminescence after 9 hours
T1 construct: endogenous in cells; host or cells: HeLa LgBit (Plk1-HiBit KI): HeLa stably expressing LgBit, with a CRISPR/Cas9 knock-in of HiBit at the endogenous PLK1 locus
Method in brief: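 Compounds (300 nM) were added with Endurazine to thymidine-synchronised cells (2 mM, 24 h block, then release and 18 h culture), and luminescence at 470-480 nm was followed live. Cells: HeLa stably expressing LgBit, HiBit knocked into native PLK1 C-terminus. Value: luminescence ratio versus DMSO control.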

[2] = system: NCI-H69 cell line; experiment: Cell viability assay for NCI-H69 cell line (EZ-Cytox); conditions: Homo sapiens, NCI-H69, 120 h; H69 cells, 5 days, 3000 nM to 0.46 nM
Method in brief: (§1)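 IC50 values are binned (A: <30 nM, B: <50 nM, C: <100 nM, D: <200 nM, E: <400 nM) from EZ-Cytox read-outs. Cells were exposed to compound for 5 days, then shaken 3 min and absorbance taken at […].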

[3] = system: MRC-5 cell line; experiment: Cell viability assay for MRC-5 cell line (EZ-Cytox); conditions: Homo sapiens, MRC5, 120 h; MRC-5 normal cell line, 5 days, 10000 nM to 1.52 nM; read-out: Activity: IC50 value, cell viability, MRC-5 cell line (Exemplary Compounds)
Protocol: 4. Cell Viability Assay for MRC-5 Cell Line
(1) Culture of MRC-5 Cell Line
The MRC-5 cell line was purchased from KCLB. Passage of cultured cells was maintained within P15.
(2) Treatment of Compounds of the Present Invention
Then, it was cultured in 37° C. CO2 incubator (Thermo Fisher Scientific) for 5 days.
(3) Cytotoxicity Experiment
CO2 incubator for 4 hours.

[4] = system: NCI-H526 cell line; experiment: Cell viability assay for NCI-H526 cell line (EZ-Cytox); conditions: Homo sapiens, NCI-H526, 120 h; H526 cells, 5 days, 3000 nM to 0.46 nM
Method in brief: as §1

T1 sequence (P53350 whole entry): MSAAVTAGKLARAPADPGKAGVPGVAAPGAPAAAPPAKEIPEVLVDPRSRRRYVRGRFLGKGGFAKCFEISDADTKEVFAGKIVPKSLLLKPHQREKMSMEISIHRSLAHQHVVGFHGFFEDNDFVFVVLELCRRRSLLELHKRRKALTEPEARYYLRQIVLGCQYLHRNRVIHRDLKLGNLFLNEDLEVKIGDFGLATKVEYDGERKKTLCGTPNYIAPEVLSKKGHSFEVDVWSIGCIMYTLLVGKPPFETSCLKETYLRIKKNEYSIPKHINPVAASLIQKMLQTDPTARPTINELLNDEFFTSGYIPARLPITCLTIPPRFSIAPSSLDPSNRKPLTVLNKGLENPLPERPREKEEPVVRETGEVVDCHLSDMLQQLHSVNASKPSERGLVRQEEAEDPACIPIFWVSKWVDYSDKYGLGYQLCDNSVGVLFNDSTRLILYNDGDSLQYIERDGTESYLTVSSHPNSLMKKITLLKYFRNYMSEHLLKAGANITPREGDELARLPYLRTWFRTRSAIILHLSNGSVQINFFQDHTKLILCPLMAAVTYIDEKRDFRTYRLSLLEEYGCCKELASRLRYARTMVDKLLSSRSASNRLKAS

Activity: ratio of the luminescence value of compound treatment group to DMSO treatment group [1]	SMILES	pIC50 [2]	pIC50 [3]	pIC50 [4]
++ (++: <0.5)	COc1cc(C(=O)NC2CCN(CCN3CCN(c4ccc(NC5CCC(=O)NC5=O)c(F)c4)CC3)CC2)ccc1Nc1ncc2c(n1)N(C1CCCC1)CC(F)(F)C(=O)N2C (stereo not shown) [Compound 32, 4-((9-cyclopentyl-7,7-difluoro-5-methyl-6-oxo-6,7,8,9-tetrahydro-5H-pyrimido[4,5-b][1,4]diazepin-2-yl)amino)-N-(1-(2-(4-(4-((2,6-dioxopiperidin-3-yl)amino)-3-fluorophenyl)piperazin-1-yl)ethyl)piperidin-4-yl)-3-methoxybenzamide]	> 7.52	< 5.00	> 7.52
+++ (+++: <0.3)	COc1cc(C(=O)NN2CCC(CCN3CCN(c4cc(C)c(NC5CCC(=O)NC5=O)cc4F)CC3)CC2)ccc1Nc1ncc2c(n1)N(C(C)C)CC(F)(F)C(=O)N2C (stereo not shown) [Compound 75, 4-((7,7-difluoro-9-isopropyl-5-methyl-6-oxo-6,7,8,9-tetrahydro-5H-pyrimido[4,5-b][1,4]diazepin-2-yl)amino)-N-(4-(2-(4-(4-((2,6-dioxopiperidin-3-yl)amino)-2-fluoro-5-methylphenyl)piperazin-1-yl)ethyl)piperidin-1-yl)-3-methoxybenzamide]	> 7.52	< 5.00	> 7.52
++ (++: <0.5)	COc1cc(C(=O)NC2CC3(CCN(CC4CCN(c5ccc(C6CCC(=O)NC6=O)nc5C)CC4)CC3)C2)ccc1Nc1ncc2c(n1)N(C1CCCC1)CC(F)(F)C(=O)N2C (stereo not shown) [Compound 18, 4-((9-cyclopentyl-7,7-difluoro-5-methyl-6-oxo-6,7,8,9-tetrahydro-5H-pyrimido[4,5-b][1,4]diazepin-2-yl)amino)-N-(7-((1-(6-(2,6-dioxopiperidin-3-yl)-2-methylpyridin-3-yl)piperidin-4-yl)methyl)-7-azaspiro[3.5]nonan-2-yl)-3-methoxybenzamide]	> 7.52	< 5.00	> 7.52
+++ (+++: <0.3)	COc1cc(C(=O)NC2CCC(N(C)CC3CCN(c4cnc(C5CCC(=O)NC5=O)cc4C)CC3)CC2)ccc1Nc1ncc2c(n1)N(C)CC(F)(F)C(=O)N2C (stereo not shown) [Compound 12, 4-((7,7-difluoro-5,9-dimethyl-6-oxo-6,7,8,9-tetrahydro-5H-pyrimido[4,5-b][1,4]diazepin-2-yl)amino)-N-((1r,4r)-4-(((1-(6-(2,6-dioxopiperidin-3-yl)-4-methylpyridin-3-yl)piperidin-4-yl)methyl)(methyl)amino)cyclohexyl)-3-methoxybenzamide]	> 6.70	< 5.00	> 6.70
+++ (+++: <0.3)	COc1cc(C(=O)N[C@H]2CC[C@H](CN(C)C3CCN(c4cnc(C5CCC(=O)NC5=O)cc4C)CC3)CC2)ccc1Nc1ncc2c(n1)N(C(C)C)CC(F)(F)C(=O)N2C (stereo partly shown) [Compound 16, 4-((7,7-difluoro-9-isopropyl-5-methyl-6-oxo-6,7,8,9-tetrahydro-5H-pyrimido[4,5-b][1,4]diazepin-2-yl)amino)-N-((1r,4r)-4-(((1-(6-(2,6-dioxopiperidin-3-yl)-4-methylpyridin-3-yl)piperidin-4-yl)(methyl)amino)methyl)cyclohexyl)-3-methoxybenzamide]	> 7.52	< 5.00	> 7.52
++ (++: <0.5)	COc1cc(C(=O)NN2CCC(CCN3CCN(c4cc(OC)c(NC5CCC(=O)NC5=O)cc4F)CC3)CC2)ncc1Nc1ncc2c(n1)N(C(C)C)CC(F)(F)C(=O)N2C (stereo not shown) [Compound 46, 5-((7,7-difluoro-9-isopropyl-5-methyl-6-oxo-8H-pyrimido[4,5-b][1,4]diazepin-2-yl)amino)-N-(4-(2-(4-(4-((2,6-dioxo-3-piperidyl)amino)-2-fluoro-5-methoxy-phenyl)piperazin-1-yl)ethyl)-1-piperidyl)-4-methoxy-pyridine-2-carboxamide]	> 7.00	< 5.00	> 7.30

Second part, the molecule before the results:

SMILES	Activity: ratio of the luminescence value of compound treatment group to DMSO treatment group [1]	pIC50 [2]	pIC50 [3]	pIC50 [4]
COc1cc(C(=O)NC2CCC(N(C)CC3CCN(c4ccc(NC5CCC(=O)NC5=O)cc4F)CC3)CC2)ccc1Nc1ncc2c(n1)N(C(C)C)CC(F)(F)C(=O)N2C (stereo not shown) [Compound 26, 4-((7,7-difluoro-9-isopropyl-5-methyl-6-oxo-6,7,8,9-tetrahydro-5H-pyrimido[4,5-b][1,4]diazepin-2-yl)amino)-N-((1r,4r)-4-(((1-(4-((2,6-dioxopiperidin-3-yl)amino)-2-fluorophenyl)piperidin-4-yl)methyl)(methyl)amino)cyclohexyl)-3-methoxybenzamide]	++ (++: <0.5)	> 7.52	< 5.00	> 7.52
COc1cc(C(=O)NC2CCN(C3CN(c4ccc(C5CCC(=O)NC5=O)cc4F)C3)CC2)ccc1Nc1ncc2c(n1)N(C(C)C)CC(F)(F)C(=O)N2C (stereo not shown) [Compound 3, 4-((7,7-difluoro-9-isopropyl-5-methyl-6-oxo-6,7,8,9-tetrahydro-5H-pyrimido[4,5-b][1,4]diazepin-2-yl)amino)-N-(1-(1-(4-(2,6-dioxopiperidin-3-yl)-2-fluorophenyl)azetidin-3-yl)piperidin-4-yl)-3-methoxybenzamide]	++ (++: <0.5)	> 7.00	< 5.00	> 7.30
COc1cc(N2CCN(CCC3CCN(NC(=O)c4cc(F)c(Nc5ncc6c(n5)N(C(C)C)CC(F)(F)C(=O)N6C)cc4OC)CC3)CC2)c(F)cc1NC1CCC(=O)NC1=O (stereo not shown) [Compound 45, 4-((7,7-difluoro-9-isopropyl-5-methyl-6-oxo-6,7,8,9-tetrahydro-5H-pyrimido[4,5-b][1,4]diazepin-2-yl)amino)-N-(4-(2-(4-(4-((2,6-dioxopiperidin-3-yl)amino)-2-fluoro-5-methoxyphenyl)piperazin-1-yl)ethyl)piperidin-1-yl)-5-fluoro-2-methoxybenzamide]	++ (++: <0.5)	> 6.70	< 5.00	> 6.70
COc1cc(C(=O)NN2CCC(CCN3CCN(c4ccc(N(C)C5CCC(=O)NC5=O)cc4F)CC3)CC2)ccc1Nc1ncc2c(n1)N(C(C)C)CC(F)(F)C(=O)N2C (stereo not shown) [Compound 38, 4-((7,7-difluoro-9-isopropyl-5-methyl-6-oxo-6,7,8,9-tetrahydro-5H-pyrimido[4,5-b][1,4]diazepin-2-yl)amino)-N-(4-(2-(4-(4-((2,6-dioxopiperidin-3-yl)(methyl)amino)-2-fluorophenyl)piperazin-1-yl)ethyl)piperidin-1-yl)-3-methoxybenzamide]	+++ (+++: <0.3)	> 7.52	< 5.00	> 7.52
COc1cc(C(=O)N[C@H]2CC[C@H](CN(C)C3CCN(c4ccc(C5CCC(=O)NC5=O)nc4)CC3)CC2)ccc1Nc1ncc2c(n1)N(C1CCCC1)CC(F)(F)C(=O)N2C (stereo partly shown) [Compound 9, 4-((9-cyclopentyl-7,7-difluoro-5-methyl-6-oxo-6,7,8,9-tetrahydro-5H-pyrimido[4,5-b][1,4]diazepin-2-yl)amino)-N-((1r,4r)-4-(((1-(6-(2,6-dioxopiperidin-3-yl)pyridin-3-yl)piperidin-4-yl)(methyl)amino)methyl)cyclohexyl)-3-methoxybenzamide]	++ (++: <0.5)	> 7.52	< 5.00	> 7.52
COc1cc(C(=O)NC2CCC(N(C)CC3CCN(c4cnc(C5CCC(=O)NC5=O)cc4C)CC3)CC2)ccc1Nc1ncc2c(n1)N(C1CCCC1)CC(F)(F)C(=O)N2C (stereo not shown) [Compound 14, 4-((9-cyclopentyl-7,7-difluoro-5-methyl-6-oxo-6,7,8,9-tetrahydro-5H-pyrimido[4,5-b][1,4]diazepin-2-yl)amino)-N-((1r,4r)-4-(((1-(6-(2,6-dioxopiperidin-3-yl)-4-methylpyridin-3-yl)piperidin-4-yl)methyl)(methyl)amino)cyclohexyl)-3-methoxybenzamide]	+++ (+++: <0.3)	> 7.52	< 5.00	> 7.52
COc1cc(C(=O)NN2CCC(CCN3CCN(c4cc(F)c(NC5CCC(=O)NC5=O)cc4F)CC3)CC2)c(F)cc1Nc1ncc2c(n1)N(C1CCCC1)CC(F)(F)C(=O)N2C (stereo not shown) [Compound 59, 4-((9-cyclopentyl-7,7-difluoro-5-methyl-6-oxo-6,7,8,9-tetrahydro-5H-pyrimido[4,5-b][1,4]diazepin-2-yl)amino)-N-(4-(2-(4-(4-((2,6-dioxopiperidin-3-yl)amino)-2,5-difluorophenyl)piperazin-1-yl)ethyl)piperidin-1-yl)-2-fluoro-5-methoxybenzamide]	++ (++: <0.5)	> 7.30	< 5.00	> 7.52
